Test results as given in patent US9944654B2, “Nargenicin compounds and uses thereof as antibacterial agents” (priority 2014, dated 2018).
Converted amounts (≈) assume the structure as drawn. Read-outs that look alike come from different tables or passages of the source.

How the values were obtained:
[1] = system: Staphylococcus aureus MB6266 (MRSA COL); experiment: Nargenicin antibacterial assay (MIC), S. aureus; format: cell-based; conditions: * = some reduction of growth versus control at […]; for MIC: Staphylococcus aureus, MRSA, read-out: S. aureus COL (MIC), MHII broth + 50% human serum; for S. aureus COL (MIC): MHII broth + 50% human serum
[2] = system: Escherichia coli MB5747 (LS 883, tolC); experiment: microbe, parasite or virus in culture; format: cell-based; conditions: * = some reduction of growth versus control at […]; for MIC: Escherichia coli, read-out: E. coli LS883 tolC (MIC), MHII broth; for E. coli LS883 tolC (MIC): MHII broth
[3] = biological target: T1, S. aureus DnaE (DNA polymerase III α-subunit homolog from Staphylococcus aureus) (Staphylococcus aureus, UniProt Q5HF71); experiment: biochemical; format: biochemical
T1 construct: SaDnaE (S. aureus DnaE residues 1-1065); 6xHis (N); made in house; host or cells: E. coli BL21-AI
T1 sequence (Q5HF71 1-1065): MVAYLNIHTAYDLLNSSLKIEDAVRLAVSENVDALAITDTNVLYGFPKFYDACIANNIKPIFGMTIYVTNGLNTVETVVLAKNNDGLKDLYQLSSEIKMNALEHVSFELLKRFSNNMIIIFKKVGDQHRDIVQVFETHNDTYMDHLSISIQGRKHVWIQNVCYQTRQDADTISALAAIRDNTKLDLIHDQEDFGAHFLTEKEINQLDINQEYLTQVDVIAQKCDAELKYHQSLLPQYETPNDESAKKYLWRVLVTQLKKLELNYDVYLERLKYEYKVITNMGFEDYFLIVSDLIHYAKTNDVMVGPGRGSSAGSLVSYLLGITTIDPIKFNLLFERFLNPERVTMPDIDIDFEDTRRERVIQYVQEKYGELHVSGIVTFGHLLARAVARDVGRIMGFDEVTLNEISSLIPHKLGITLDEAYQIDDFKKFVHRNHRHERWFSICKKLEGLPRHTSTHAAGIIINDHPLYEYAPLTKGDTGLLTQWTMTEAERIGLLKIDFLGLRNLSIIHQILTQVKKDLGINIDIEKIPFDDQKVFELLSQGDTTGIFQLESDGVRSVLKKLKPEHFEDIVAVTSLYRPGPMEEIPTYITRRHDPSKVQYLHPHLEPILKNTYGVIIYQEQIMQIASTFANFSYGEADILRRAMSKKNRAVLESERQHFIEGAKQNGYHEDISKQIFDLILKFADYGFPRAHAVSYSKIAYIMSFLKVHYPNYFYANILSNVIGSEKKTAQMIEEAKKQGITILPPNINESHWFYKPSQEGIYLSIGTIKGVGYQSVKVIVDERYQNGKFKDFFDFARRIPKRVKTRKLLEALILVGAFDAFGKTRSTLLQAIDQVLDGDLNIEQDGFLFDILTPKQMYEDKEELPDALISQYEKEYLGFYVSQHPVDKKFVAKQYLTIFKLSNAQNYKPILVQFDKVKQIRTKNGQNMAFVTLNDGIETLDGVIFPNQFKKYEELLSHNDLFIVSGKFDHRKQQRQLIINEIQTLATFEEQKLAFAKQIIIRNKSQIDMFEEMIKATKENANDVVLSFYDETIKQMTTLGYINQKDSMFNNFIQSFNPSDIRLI
How it was run: (§1)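 His-tagged E. coli DnaE (residues 1-1160, 0.8 μg/ml) or S. aureus DnaE (residues 1-1065, 0.05 μg/ml) incubated 30 min at 30° C. with activated calf thymus DNA, 0.025 mM dATP/dGTP/dCTP and 0.011 mM 3H-dTTP in Tris pH 7.5/Mg acetate. TCA-precipitated labelled DNA counted.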

[4] = biological target: T2, E. coli DnaE (DNA polymerase III α-subunit from Escherichia coli) (Escherichia coli, UniProt P10443); experiment: In vitro DnaE single enzyme assay (E. coli); format: biochemical
T2 construct: EcDnaE (E. coli DnaE residues 1-1160); 6xHis (N); made in house; host or cells: E. coli BL21(DE3)
T2 sequence (P10443 whole entry, the tested form may be a part): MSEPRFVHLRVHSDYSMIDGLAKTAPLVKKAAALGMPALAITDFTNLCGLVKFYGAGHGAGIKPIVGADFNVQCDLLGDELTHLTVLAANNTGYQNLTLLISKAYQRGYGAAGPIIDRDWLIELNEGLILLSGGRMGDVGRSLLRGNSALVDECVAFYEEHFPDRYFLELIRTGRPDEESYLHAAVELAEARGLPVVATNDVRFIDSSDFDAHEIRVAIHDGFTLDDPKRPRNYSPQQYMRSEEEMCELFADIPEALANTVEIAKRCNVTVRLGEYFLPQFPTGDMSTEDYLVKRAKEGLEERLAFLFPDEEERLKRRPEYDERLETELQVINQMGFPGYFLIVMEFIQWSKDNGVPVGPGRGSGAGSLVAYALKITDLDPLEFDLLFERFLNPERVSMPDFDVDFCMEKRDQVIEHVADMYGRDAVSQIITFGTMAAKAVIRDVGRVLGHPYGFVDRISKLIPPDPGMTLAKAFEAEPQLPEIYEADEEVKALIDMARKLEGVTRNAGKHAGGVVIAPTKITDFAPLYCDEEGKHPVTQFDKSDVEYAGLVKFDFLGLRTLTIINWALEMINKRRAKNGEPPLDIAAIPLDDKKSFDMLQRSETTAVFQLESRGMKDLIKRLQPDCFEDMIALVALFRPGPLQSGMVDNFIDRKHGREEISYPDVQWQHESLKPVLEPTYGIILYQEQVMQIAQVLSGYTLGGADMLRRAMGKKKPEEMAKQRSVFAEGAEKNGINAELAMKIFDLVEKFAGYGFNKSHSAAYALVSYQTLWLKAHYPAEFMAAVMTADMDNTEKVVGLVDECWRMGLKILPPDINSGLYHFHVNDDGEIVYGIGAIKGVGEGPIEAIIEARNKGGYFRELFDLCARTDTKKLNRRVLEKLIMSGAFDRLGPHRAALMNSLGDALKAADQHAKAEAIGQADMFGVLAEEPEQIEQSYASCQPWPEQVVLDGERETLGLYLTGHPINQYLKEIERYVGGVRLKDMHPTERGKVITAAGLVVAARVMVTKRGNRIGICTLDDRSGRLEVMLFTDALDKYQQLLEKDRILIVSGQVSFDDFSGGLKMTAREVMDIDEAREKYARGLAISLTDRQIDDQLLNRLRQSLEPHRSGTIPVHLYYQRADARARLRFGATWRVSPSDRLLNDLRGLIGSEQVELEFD
How it was run: as §1

[5] = system: Pseudomonas aeruginosa MB5890 (CB1101, efflux-deleted); experiment: microbe, parasite or virus in culture; format: cell-based; conditions: * = some reduction of growth versus control at […]; for MIC: Pseudomonas aeruginosa, read-out: P. aeruginosa MB5890 efflux-del (MIC), MHII broth; for P. aeruginosa MB5890 efflux-del (MIC): MHII broth
[6] = system: Streptococcus pneumoniae MB6357 (CL 2883); experiment: Nargenicin antibacterial assay (MIC), S. pneumoniae; format: cell-based; conditions: * = some reduction of growth versus control at […]; for MIC: Streptococcus pneumoniae, read-out: S. pneumoniae MB2883 (MIC), Isosensitest broth; for S. pneumoniae MB2883 (MIC): Isosensitest broth
[7] = read-out: E. coli DnaE IC50 (converted)

Row | SMILES | MIC [1] [µg/mL] | MIC [2] [µg/mL] | IC50 ([3]; S. aureus DnaE IC50) [µM] | IC50 [4, 7] [µM] | MIC [5] [µg/mL] | MIC [6] [µg/mL] | IC50 ([4]; E. coli DnaE IC50) [µM] | S. aureus COL (MIC) [1] [µg/mL] | E. coli LS883 tolC (MIC) [2] [µg/mL] | IC50 ([3]; read-out: S. aureus DnaE IC50) [µM] | P. aeruginosa MB5890 efflux-del (MIC) [5] [µg/mL] | S. pneumoniae MB2883 (MIC) [6] [µg/mL] | IC50 ([3]; read-out: S. aureus DnaE IC50 (converted)) [µM] | S. aureus DnaE IC50 [3] [µg/mL] | E. coli DnaE IC50 [4] [µg/mL]
1 | CO[C@H]1CC2C=C[C@H]3[C@H]4O[C@]2(/C(C)=C/[C@@H](C)[C@@H](/C(C)=N\O)OC1=O)[C@@H]3[C@H](O)[C@@H](C)[C@H]4OC(=O)c1ccc[nH]1 (stereo partly drawn) [Example 180] | 4 | 4 (≈ 7.57 µM) | < 0.0114 | 11.4 | 64 (≈ 121 µM) | 32 (≈ 60.5 µM) |  |  |  |  |  |  |  |  | 
2 | CO[C@H]1C[C@H]2C=C[C@H]3[C@H]4O[C@]2(/C(C)=C/[C@@H](C)[C@@H]([C@@H](C)O)OC1=O)[C@@H]3[C@H](O)[C@@H](C)[C@H]4OC(N)=O [Example 197] | 128 | 2 (≈ 4.3 µM) | 0.0236 | 81.6 | 2 (≈ 4.3 µM) | > 128 |  |  |  |  |  |  |  |  | 
3 | CO[C@H]1C[C@H]2C=CC3C4[C@H](O)[C@@H](C)[C@@H](OC(=O)c5ccc[nH]5)[C@@H]3O[C@]42/C(C)=C/[C@@H](C)[C@@H]([C@@H](C)OC(=O)C(=O)OCc2ccncc2)OC1=O.O=C(O)C(F)(F)F [Example 69] | 2 | 1 | < 0.00757 | 6.31 | 32 | > 128 |  |  |  |  |  |  |  |  | 
4 | CO[C@H]1C[C@H]2C=CC3C4[C@H](O)[C@@H](C)[C@@H](OC(=O)c5cc(-c6cccnc6)c[nH]5)[C@@H]3O[C@]42/C(C)=C/[C@@H](C)[C@@H]([C@@H](C)O)OC1=O [Example 164, (3R,4S,7S,8aS,11R,12R,13R,14R,14bS,E)-14-hydroxy-4-((R)-1-hydroxyethyl)-7-methoxy-1,3,13-trimethyl-6-oxo-3,4,6,7,8,8a,10a,11,12,13,14,14a-dodecahydro-11,14b-epoxynaphtho[2,1-e]oxecin-12-yl 4-(pyridin-3-yl)-1H-pyrrole-2-carboxylate] | > 128 | 16 (≈ 27 µM) | 10.1 |  | > 128 | 32 (≈ 54 µM) | > 169 |  |  |  |  |  |  |  | 
5 | CO[C@H]1C[C@H]2C=C[C@H]3[C@H]4O[C@]2(/C(C)=C/[C@@H](C)[C@@H]([C@@H](C)OC(=O)CCl)OC1=O)[C@@H]3[C@H](O)[C@@H](C)[C@H]4OC(=O)c1ccc[nH]1 [Example 59] | 0.25 | 0.25 (≈ 0.422 µM) | < 0.0101 | 16.9 | 16 (≈ 27 µM) | 64 (≈ 108 µM) |  |  |  |  |  |  |  |  | 
6 | CO[C@H]1C[C@H]2C=C[C@H]3[C@H]4O[C@]2(/C(C)=C/[C@@H](C)[C@@H]([C@@H](C)O)OC1=O)[C@@H]3[C@H](O)[C@@H](C)[C@H]4OC(C)=O [Example 186] | 8 | 4 (≈ 8.61 µM) | ~0.00969 | 64.6 | 16 (≈ 34.4 µM) | > 128 |  |  |  |  |  |  |  |  | 
7 | CO[C@H]1C[C@H]2C=C[C@H]3[C@H]4O[C@]2(/C(C)=C/[C@@H](C)[C@@H]([C@@H](C)O)OC1=O)[C@@H]3[C@H](O)[C@@H](C)[C@H]4OC(=O)c1cccn1C(C)=O [Example 203] | < 0.125 | < 0.125 | < 0.0108 | 11.7 | 16 (≈ 28.7 µM) | 128 (≈ 230 µM) |  |  |  |  |  |  |  |  | 
8 | CO[C@H]1CC2C=C[C@H]3[C@H]4O[C@]2(/C(C)=C/[C@@H](C)[C@@H]([C@@H](C)OC(=O)C[n+]2ccccc2)OC1=O)[C@@H]3[C@H](O)[C@@H](C)[C@H]4OC(=O)c1ccc[nH]1 (stereo partly drawn) [Example 71] | 0.25 | 0.25 | < 0.00944 | 18.9 | 8 | > 128 |  |  |  |  |  |  |  |  | 
9 | CO[C@H]1CC2C=C[C@H]3[C@H]4O[C@]2(/C(C)=C/[C@@H](C)[C@@H](C(C)O)OC1=O)[C@@H]3[C@H](O)[C@@H](C)[C@H]4OC(=O)c1ccc[nH]1 (stereo partly drawn) [Nar, Nargenicin] |  |  |  | 0.776 to 5.04 |  |  |  | 0.25 to 0.5 | 0.25 to 0.5 | 0.000388 to 0.0116 | 8 | >64 |  |  | 
10 | CO[C@H]1C[C@H]2C=C[C@H]3[C@H]4O[C@]2(/C(C)=C/[C@@H](C)[C@@H]([C@@H](C)O)OC1=O)[C@@H]3[C@H](O)C(C)[C@@H]4NCc1ccncc1.O=C(O)C(F)(F)F (stereo partly drawn) [Example 154] | > 128 | > 128 |  |  | > 128 | > 128 | > 160 |  |  |  |  |  | 112 |  | 
11 | CO[C@H]1C[C@H]2C=CC3C4[C@H](O)[C@@H](C)[C@@H](OC(=O)c5ccc[nH]5)[C@@H]3O[C@]42/C(C)=C/[C@@H](C)[C@@H]([C@@H](C)OC(=O)C(=O)NCc2ccncc2)OC1=O [Example 115] |  |  |  |  |  |  |  | 0.5 | 0.5 |  | 8 | >64 |  | <0.006 | 9
12 | CO[C@H]1C[C@H]2C[C@@H](O)[C@H]3[C@H]4O[C@]2(/C(C)=C/[C@@H](C)[C@@H]([C@@H](C)O)OC1=O)[C@@H]3[C@H](O)[C@@H](C)[C@H]4OC(=O)c1ccc[nH]1 [Example 194] | > 128 | 128 (≈ 240 µM) | 9.37 | > 187 | > 128 | > 128 |  |  |  |  |  |  |  |  | 
13 | CO[C@H]1C[C@H]2C=C[C@H]3[C@H]4O[C@]2(/C(C)=C/[C@@H](C)[C@@H](c2ccccc2)OC1=O)[C@@H]3[C@H](O)[C@@H](C)[C@H]4OC(=O)c1ccc[nH]1 [Example 51] | 0.25 | > 128 | < 0.011 | 14.6 | > 128 | > 128 |  |  |  |  |  |  |  |  | 
14 | CO[C@H]1C[C@H]2C=CC3C4[C@H](O)[C@@H](C)[C@@H](OC(=O)c5ccc[nH]5)[C@@H]3O[C@]42/C(C)=C/[C@@H](C)[C@@H]([C@@H](C)OC(=O)C(=O)NCc2ccccc2)OC1=O [Example 114, (3R,4S,7S,8aS,11R,12R,13R,14R,14bS,E)-4-((R)-1-(2-(benzylamino)-2-oxoacetoxy)ethyl)-14-hydroxy-7-methoxy-1,3,13-trimethyl-6-oxo-3,4,6,7,8,8a,10a,11,12,13,14,14a-dodecahydro-11,14b-epoxynaphtho[2,1-e]oxecin-12-yl 1H-pyrrole-2-carboxylate] | < 0.125 | 0.25 (≈ 0.369 µM) | < 0.00887 |  | 8 (≈ 11.8 µM) | > 128 | 16.3 |  |  |  |  |  |  |  | 
15 | COC(=O)O[C@H](C)[C@H]1OC(=O)[C@@H](OC)CC2C=C[C@H]3[C@H]4O[C@]2(/C(C)=C/[C@H]1C)[C@@H]3[C@H](O)[C@@H](C)[C@H]4OC(=O)c1ccc[nH]1 (stereo partly drawn) [Example 27] | 2 | 4 (≈ 6.97 µM) | < 0.0105 | 61 | > 128 | 64 (≈ 112 µM) |  |  |  |  |  |  |  |  | 
